The text below walks through data of patent US20130137767A1, “Methods and Compositions for Treating Arthritis with Docosahexaenoic Acid” (DSM IP ASSETS B.V., priority 2010, published 2013).

The test system of data set [1] is Collagen-Induced Arthritis (CIA). Briefly: Collagen-Induced Arthritis, EE vs. TG (Example 2): clinical arthritis severity and incidence. The format is in vivo, Male DBA/1O1aHsd mice. Particulars: for incidence of disease: day 45. The text has this:
The anti-arthritic activity of DHA, DHA/DPAn6 and DHA/EPA, administered as EE or triglyceride oils (TG), in a chronic mouse model of inflammation, Collagen-Induced Arthritis (CIA), was studied. Methods used in this study were similar to those described in Example 1 (CIA-EE Study). Study groups consisted of: Male DBA/1O1aHsd mice were enrolled, quarantined, and feed study diets following the protocols described in Example 1 (CIA-EE Study). EE and TG oils were blended into the base diet to provide 2500 mg/kg PUFA per day (HED approximately 12 g/day). A single dose of PUFA per day (HED approximately 5 g/day). The 1000 mg/kg DHA-EE dose was equivalent to the amount of DHA administered in the DHA/EPA-EE blend. The fat blend the 2500 mg/kg EE diets consisted of approximately: 1 part flax, 12 parts HCOC and 23 parts HO-SAFF; 1000 mg/kg EE diet: 1 part flax, 12 parts HCOC and 32 parts HO-SAFF; 2500 mg/kg DHASCO® oil diet: 1 part flax, 8 parts HCOC, 17 parts HO-SAFF and 15 parts soybean oil; 2500 mg/kg DHA-S oil diet: 1 part flax, 5 parts HCOC, 16 parts HO-SAFF and 6 parts soybean oil. 2500 mg/kg DHA/EPA (Nordic Naturals fish oil) diet: 1 part flax, 21 parts HCOC, 18 parts HO-SAFF and 13 parts soybean oil. The monounsaturate control animals received a fat blend of 1 part flax, 7 parts HCOC and 25 parts HO-SAFF. All study diets provided a total of 7% fat. Animals in the No Disease control and Dexamethasone groups were fed the diet containing OA-EE. Mice received collagen injections on day 0 and day 21, as described previously. Blood samples were collected at day 21 and day 45. At day 45, joints were collected for histology and pathology. Data was analyzed and compared by one-way ANOVA using the Bonferroni post-test to compare treatment groups to respective placebo control and to make comparisons between treatment groups (GraphPad, Prism, Version 4.0). Effects were considered to be statistically significant at p<0.05. Arthritis severity was assessed from day 18 to 45; a score of 0 represented an animal devoid of clinical arthritis symptoms and a score of 5 represented advanced clinical arthritis. Scores from 0-5 (most severe) were assigned to each digit on the fore and hind limbs based on erythema, swelling and mobility the mean arthritis severity per animal was determined.

A short description of data set [2]: CIA EE vs. TG (Example 2): serum phospholipid fatty acid levels by FAME analysis. The format is in vivo, Male DBA/1O1aHsd mice. As for the experimental part: Male DBA/1O1aHsd mice were enrolled, quarantined, and feed study diets following the protocols described in Example 1 (CIA-EE Study). EE and TG oils were blended into the base diet to provide 2500 mg/kg PUFA per day (HED approximately 12 g/day). A single dose of PUFA per day (HED approximately 5 g/day). The 1000 mg/kg DHA-EE dose was equivalent to the amount of DHA administered in the DHA/EPA-EE blend. The fat blend the 2500 mg/kg EE diets consisted of approximately: 1 part flax, 12 parts HCOC and 23 parts HO-SAFF; 1000 mg/kg EE diet: 1 part flax, 12 parts HCOC and 32 parts HO-SAFF; 2500 mg/kg DHASCO® oil diet: 1 part flax, 8 parts HCOC, 17 parts HO-SAFF and 15 parts soybean oil; 2500 mg/kg DHA-S oil diet: 1 part flax, 5 parts HCOC, 16 parts HO-SAFF and 6 parts soybean oil. 2500 mg/kg DHA/EPA (Nordic Naturals fish oil) diet: 1 part flax, 21 parts HCOC, 18 parts HO-SAFF and 13 parts soybean oil. The monounsaturate control animals received a fat blend of 1 part flax, 7 parts HCOC and 25 parts HO-SAFF. All study diets provided a total of 7% fat. Animals in the No Disease control and Dexamethasone groups were fed the diet containing OA-EE. Mice received collagen injections on day 0 and day 21, as described previously. Blood samples were collected at day 21 and day 45. At day 45, joints were collected for histology and pathology.
Serum phospholipid fatty acid levels were determined by FAME analysis (FIG. 11). Treatment with DHASCO® or DHA-S oil elevated serum DHA levels 3-4 fold (p<0.001), as compared to the monounsaturated (placebo) control. DHA-EE treatment elevated DHA levels 3-5 fold (p<0.001), as compared to the OA-EE (placebo) control. DPAn6-TG and EE elevated DPAn6 levels 3-4 fold (p<0.001), as compared to the monounsaturated or OA-EE (placebo) control. Serum EPA levels were elevated approximately 30 fold (p<0.001) when fish oil or DHA/EPA-EE was administered, as compared to the monounsaturated or OA-EE (placebo) control. Serum EPA levels were also elevated by treatment with DHASCO® (p<0.001), DHA-S (p<0.05), or with DHA-EE (p<0.001), as compared to the monounsaturated or OA-EE (placebo) control. […] Treatment with either DHASCO® or DHA-EE (2500 mg/kg) reduced ARA levels by approximately 90% (p<0.001), as compared to the monounsaturated or OA-EE (placebo) control. […] Serum ARA levels were reduced to a lesser degree by DHA-S (24%, p<0.001), fish oil (37%, p<0.001) and DHA/EPA-EE (49%, p<0.001), as compared to the monounsaturated or OA-EE (placebo) control. Data shown represents 3 pooled animals per group. Means±SD. *p<0.05 ***p<0.001.

As for `CC/C=C\C/C=C\C/C=C\C/C=C\C/C=C\C/C=C\CCC(=O)OCC` [DHA-EE], the “arthritis severity score as area under the curve (AUC)” value is given as “significantly reduced arthritis” in data set [1] (1000 mg/kg, days 18-45, vs OA-EE (placebo) control, FIG. 8B) and “significantly reduced arthritis” in data set [1] (2500 mg/kg PUFA, days 18-45, vs monounsaturated or OA-EE (placebo) control, FIG. 8A/B). For the same molecule, the “arthritis severity, comparison between treatment groups” value in data set [1] (2500 mg/kg PUFA, Dexamethasone 0.1 mg/kg) is on record as “more potent than DHA-EPA-EE”. For the same molecule, the incidence of disease in data set [1] (1000 mg/kg, FIG. 9B) stood at 73%; in data set [1] (2500 mg/kg PUFA, FIG. 9A/B), 60%. The arthritis severity score result in data set [1] (days 18-45, FIG. 7A/B, dose not stated) is “reduced arthritis severity”. Moreover, the “serum ARA levels, reduction vs OA-EE (placebo) control” value in data set [2] (1000 mg/kg) is on record as 77%. Besides, the “serum ARA levels, reduction vs monounsaturated or OA-EE (placebo) control” value in data set [2] (2500 mg/kg PUFA) is listed as “approximately 90%”. Besides, the “serum EPA levels, elevation vs monounsaturated or OA-EE (placebo) control” value in data set [2] (2500 mg/kg PUFA (DHA-EE dose not stated)) is “elevated”. The “serum DHA levels, elevation vs OA-EE (placebo) control” value in data set [2] (dose not stated (1000 and 2500 mg/kg tested)) is listed as 3-5 fold.
